The record followed here is ChEMBL document CHEMBL3785078 (Eur J Clin Pharmacol, 1981).

Data set [1] in a line: Total body clearance in iv dosed patient (7 patients) with renal insufficiency. Particulars: human, in vivo.
A short description of data set [2]: Half life in patient with normal renal function assessed as unchanged compound level using 14C labeled compound measured over 72 hrs. The note with it: human, in vivo.
A short description of data set [3]: Total body clearance in iv dosed patient with normal renal function. Particulars: human, in vivo.
Data set [4] in a line: clinical. The note with it: human, in vivo, po, 50 mg/kg.
Description: Terminal half life in patient (7 patients) with renal insufficiency at 50 mg/kg, po
Data set [5] is described as follows: clinical. The note with it: human, in vivo, po, 350 mg/kg.
Description: Terminal half life in patient (7 patients) with renal insufficiency at 350 mg/kg, po
Data set [6] is described as follows: Half life in patient (5 patients) with severe renal insufficiency assessed as unchanged compound level using 14C labeled compound measured over 72 hrs. Particulars: human, in vivo.
The nature of data set [7]: Disposition rate constant in patient (7 patients) with renal insufficiency at 50 mg/kg, po. The note with it: human, in vivo.
Data set [8] in a line: Apparent volume of distribution in beta-phase in iv dosed patient (7 patients) with renal insufficiency. The note with it: human, in vivo.
Data set [9] in a line: Apparent volume of distribution at steady state in iv dosed patient (7 patients) with renal insufficiency. The note with it: human, in vivo.
Data set [10] in a line: Disposition rate constant in iv dosed patient (7 patients) with renal insufficiency. Particulars: human, in vivo.
A short description of data set [11]: Apparent first order elimination rate constant from the central compartment in iv dosed patient (7 patients) with renal insufficiency. The note with it: human, in vivo.
Data set [12] is described as follows: Disposition rate constant in patient (7 patients) with renal insufficiency at 350 mg/kg, po. The note with it: human, in vivo.
The nature of data set [13]: Drug excretion in human assessed as unchanged parent compound level. Particulars: in vivo.
Data set [14] can be described thus: Apparent volume of distribution at central compartment in iv dosed patient (7 patients) with renal insufficiency. Particulars: human, in vivo.
Data set [15] in a line: Apparent first order elimination rate constant from the central compartment in iv dosed patient with normal renal function. The note with it: human, in vivo.
The nature of data set [16]: Apparent volume of distribution in beta-phase iv dosed patient with normal renal function. Particulars: human, in vivo.
A short description of data set [17]: Terminal half life in iv dosed patient (7 patients) with renal insufficiency. The note with it: human, in vivo.
A short description of data set [18]: Terminal half life in iv dosed patient with normal renal function. The note with it: human, in vivo.
The nature of data set [19]: Apparent volume of distribution at steady state in iv dosed patient with normal renal function. The note with it: human, in vivo.

As to `O=P1(N(CCCl)CCCl)NCCCO1` (centres undefined) [CYCLOPHOSPHAMIDE ANHYDROUS], the clearance in data set [1] is 0.813 mL/min/kg; in [3], 0.977 mL/min/kg. Besides, the figures for the half-life at 72 h in [2] and in data set [6] were 6.9 h and 14 h, respectively. For the same compound, the half-life was 13.7 h in data set [4], 5.21 h in data set [5], 10.2 h in [17] and 8.21 h in [18]. Besides, the k el was 1.42e-05 s⁻¹ in [7]; 1.94e-05 s⁻¹ in [10]; 3.36e-05 s⁻¹ in data set [11]; 1.92e-05 s⁻¹ in data set [12]; 4.86e-05 s⁻¹ in [15]. The Vd in data set [8] was 0.72 L/kg; in data set [9], 0.58 L/kg; in data set [14] it was 0.41 L/kg; in data set [16], 0.68 L/kg; in data set [19], 0.73 L/kg. In data set [13], the dose excreted was under 15%.
